These results are taken from PubChem BioAssay AID1259407 (Chemical Carcinogenesis Research Information System (CCRIS), 2018).

Calls of active or inactive are those of the source. The rule behind the calls is not given here.

For this data set, the system named is CCRIS mutagenicity, Ames/micronucleus/aberration tests. Kind of data set: CCRIS mutagenicity studies.
[1] abbreviates: Test System: AMES SALMONELLA TYPHIMURIUM, Strain/Indicator: TA98, Metabolic Activation: NONE, Method: STANDARD PLATE.
[2] abbreviates: Test System: AMES SALMONELLA TYPHIMURIUM, Strain/Indicator: TA100, Metabolic Activation: NONE, Method: STANDARD PLATE.
Where [3] appears, read: Test System: AMES SALMONELLA TYPHIMURIUM, Strain/Indicator: TA98, Metabolic Activation: NONE, Method: PREINCUBATION
Where [4] appears, read: Test System: AMES SALMONELLA TYPHIMURIUM, Strain/Indicator: TA100, Metabolic Activation: NONE, Method: PREINCUBATION
[5] abbreviates: Test System: MOUSE LYMPHOMA, Strain/Indicator: L5178Y (TK+/TK-), Metabolic Activation: NONE, Method: SUSPENSION/PLATE.
Setting [6] is: Test System: AMES SALMONELLA TYPHIMURIUM, Strain/Indicator: TA98, Metabolic Activation: RAT, LIVER, S-9, AROCLOR 1254, Method: STANDARD PLATE.
The mark [7] stands for this setting: Test System: AMES SALMONELLA TYPHIMURIUM, Strain/Indicator: TA1535, Metabolic Activation: NONE, Method: STANDARD PLATE.

As to `N#Cc1ccc2nc(N)[nH]c2c1`, the mutagenic call is, setting by setting: (Test System: AMES SALMONELLA TYPHIMURIUM, Strain/Indicator: TA98, Metabolic Activation: RAT, LIVER, S-9, AROCLOR 1254, Method: PREINCUBATION) “active; positive”; (Test System: AMES SALMONELLA TYPHIMURIUM, Strain/Indicator: TA100, Metabolic Activation: RAT, LIVER, S-9, AROCLOR 1254, Method: PREINCUBATION) “active; positive”.
Turning to `BrCc1c2ccccc2c2ccc3cccc4ccc1c2c43`, the mutagenic call is “active; positive” under setting [1] and “active; positive” under setting [2].
On to `Nc1ncn[nH]1`, for which the mutagenic call (Test System: AMES SALMONELLA TYPHIMURIUM, Strain/Indicator: TA97, Metabolic Activation: HAMSTER, LIVER, S-9, AROCLOR 1254 (10 OR 30%), Method: PREINCUBATION) is “inactive; negative”; the mutagenic call (Test System: AMES SALMONELLA TYPHIMURIUM, Strain/Indicator: TA97, Metabolic Activation: NONE, Method: PREINCUBATION) is “inactive; negative”; the mutagenic call (Test System: AMES SALMONELLA TYPHIMURIUM, Strain/Indicator: TA97, Metabolic Activation: RAT, LIVER, S-9, AROCLOR 1254 (10 OR 30%), Method: PREINCUBATION) is “inactive; negative”; the mutagenic call (Test System: AMES SALMONELLA TYPHIMURIUM, Strain/Indicator: TA98, Metabolic Activation: HAMSTER, LIVER, S-9, AROCLOR 1254 (10 OR 30%), Method: PREINCUBATION) is “inactive; negative”; the mutagenic call under setting [3] is “inactive; negative”; the mutagenic call (Test System: AMES SALMONELLA TYPHIMURIUM, Strain/Indicator: TA98, Metabolic Activation: PROSTAGLANDIN H SYNTHASE, Method: PREINCUBATION) was “inactive; negative”. Also, the mutagenic call was “inactive; negative” (Test System: AMES SALMONELLA TYPHIMURIUM, Strain/Indicator: TA98, Metabolic Activation: RAT, LIVER, S-9, AROCLOR 1254 (10 OR 30%), Method: PREINCUBATION); “inactive; negative” (Test System: AMES SALMONELLA TYPHIMURIUM, Strain/Indicator: TA100, Metabolic Activation: HAMSTER, LIVER, S-9, AROCLOR 1254 (10 OR 30%), Method: PREINCUBATION); “inactive; negative” under setting [4]; “inactive; negative” (Test System: AMES SALMONELLA TYPHIMURIUM, Strain/Indicator: TA100, Metabolic Activation: RAT, LIVER, S-9, AROCLOR 1254 (10 OR 30%), Method: PREINCUBATION); “inactive; negative” (Test System: AMES SALMONELLA TYPHIMURIUM, Strain/Indicator: TA1535, Metabolic Activation: HAMSTER, LIVER, S-9, AROCLOR 1254 (10 OR 30%), Method: PREINCUBATION); “inactive; negative” (Test System: AMES SALMONELLA TYPHIMURIUM, Strain/Indicator: TA1535, Metabolic Activation: NONE, Method: PREINCUBATION). In addition, the mutagenic call is “inactive; negative” (Test System: AMES SALMONELLA TYPHIMURIUM, Strain/Indicator: TA1535, Metabolic Activation: RAT, LIVER, S-9, AROCLOR 1254 (5 OR 10%), Method: PREINCUBATION); “inactive; negative” (Test System: AMES SALMONELLA TYPHIMURIUM, Strain/Indicator: TA1535, Metabolic Activation: RAT, LIVER, S-9, AROCLOR 1254 (30%), Method: PREINCUBATION); “inactive; negative” (Test System: E. COLI, Strain/Indicator: WP2 UVRA, Metabolic Activation: HAMSTER, LIVER, S-9, AROCLOR 1254, Method: STANDARD PLATE); “inactive; negative” (Test System: E. COLI, Strain/Indicator: WP2 UVRA, Metabolic Activation: HAMSTER, LIVER, S-9, Method: STANDARD PLATE); “inactive; negative” (Test System: E. COLI, Strain/Indicator: WP2 UVRA, Metabolic Activation: MOUSE, LIVER, S-9, AROCLOR 1254, Method: STANDARD PLATE); “inactive; negative” (Test System: E. COLI, Strain/Indicator: WP2 UVRA, Metabolic Activation: MOUSE, LIVER, S-9, Method: STANDARD PLATE). Also, the mutagenic call was “inactive; negative” (Test System: E. COLI, Strain/Indicator: WP2 UVRA, Metabolic Activation: NONE, Method: STANDARD PLATE); “inactive; negative” (Test System: E. COLI, Strain/Indicator: WP2 UVRA, Metabolic Activation: RAT, LIVER, S-9, AROCLOR 1254, Method: STANDARD PLATE); “inactive; negative” (Test System: E. COLI, Strain/Indicator: WP2 UVRA, Metabolic Activation: RAT, LIVER, S-9, Method: STANDARD PLATE); “inactive; negative” under setting [5]; “inactive; negative” (Test System: MOUSE LYMPHOMA, Strain/Indicator: L5178Y (TK+/TK-), Metabolic Activation: RAT, LIVER, S-9, AROCLOR 1254, Method: SUSPENSION/PLATE); “inactive; negative” (Test System: MOUSE LYMPHOMA, Strain/Indicator: L5178Y (TK+/TK-), Metabolic Activation: RAT, LIVER, S-9, Method: SUSPENSION/PLATE).
As to `CCCCC/C=C\C/C=C\C/C=C\C/C=C\CCCC(=O)O`, the mutagenic call (Test System: CHINESE HAMSTER V-79, Strain/Indicator: V-79/6-THIOGUANINE, Metabolic Activation: NONE) is “active; positive”.
With `N#CC(Cl)Cl`, the mutagenic call runs as follows: under setting [1], “active; positive”; under setting [6], “active; positive”; (Test System: AMES SALMONELLA TYPHIMURIUM, Strain/Indicator: TA98, Metabolic Activation: RAT, LIVER, S-9, PHENOBARBITAL AND 5,6-BENZOFLAVONE, Method: PREINCUBATION) “inactive; negative”; (Test System: AMES SALMONELLA TYPHIMURIUM, Strain/Indicator: TA100, Metabolic Activation: NONE, Method: FLUCTUATION TEST) “active; positive”; under setting [4], “active; positive”; under setting [2], “active; positive”. Further, the mutagenic call (Test System: AMES SALMONELLA TYPHIMURIUM, Strain/Indicator: TA100, Metabolic Activation: RAT, LIVER, S-9, AROCLOR 1254, Method: FLUCTUATION TEST) was “active; positive”; the mutagenic call (Test System: AMES SALMONELLA TYPHIMURIUM, Strain/Indicator: TA100, Metabolic Activation: RAT, LIVER, S-9, AROCLOR 1254, Method: STANDARD PLATE) was “active; positive”; the mutagenic call (Test System: AMES SALMONELLA TYPHIMURIUM, Strain/Indicator: TA100, Metabolic Activation: RAT, LIVER, S-9, PHENOBARBITAL AND 5,6-BENZOFLAVONE, Method: PREINCUBATION) was “active; positive”; the mutagenic call under setting [7] is “active; positive”; the mutagenic call (Test System: AMES SALMONELLA TYPHIMURIUM, Strain/Indicator: TA1535, Metabolic Activation: RAT, LIVER, S-9, AROCLOR 1254, Method: STANDARD PLATE) was “active; positive”.
As for `C[C@@]1(CO)[C@H](O)CC[C@@]2(C)[C@H]1CC[C@H]1C[C@@H]3C[C@@]12CC[C@]3(O)CO`, the mutagenic call is, setting by setting: (End Point: In vitro chromosomal aberrations, Test System: Human (male) peripheral blood lymphocytes, Metabolic Activation: None) “active; positive”; (End Point: In vitro micronucleus, Test System: Human (male) peripheral blood lymphocytes, Metabolic Activation: None) “active; positive; increased trend in all groups; effect depended on age and genetic stat”; (Test System: AMES SALMONELLA TYPHIMURIUM, Strain/Indicator: TA102, Metabolic Activation: NONE, Method: STANDARD PLATE) “inactive; negative”; (Test System: AMES SALMONELLA TYPHIMURIUM, Strain/Indicator: TA102, Metabolic Activation: RAT, LIVER, S-9, AROCLOR 1254, Method: STANDARD PLATE) “inactive; negative”; under setting [5], “active; positive”; (Test System: UDS RODENT HEPATOCYTES, Strain/Indicator: THY INCORP (NON-S-PHASE), Metabolic Activation: NONE, Method: AUTORADIOGRAPHY) “inactive; negative”.
In the case of `O=S1(=O)CCCO1`, the mutagenic call is “active; positive” (Test System: AMES SALMONELLA TYPHIMURIUM, Strain/Indicator: TA100, Metabolic Activation: RAT, LIVER, S-9, KC500 OR PHENOBARBITAL, Method: LIQUID SUSPENSION); “active; positive” under setting [7]; “active; positive” (Test System: UDS HUMAN FIBROBLASTS, Strain/Indicator: THY INCORP (NON-S-PHASE), Metabolic Activation: NONE, Method: LIQUID SCINTILLATION COUNTING).
`ClNc1ccc2c(c1)Cc1ccccc1-2`: the mutagenic call under setting [6] is “active; positive”.
Regarding `O=S(=O)(O)OCc1c2ccccc2c(CO)c2c1ccc1ccccc12`, under setting [3], the mutagenic call was “active; positive”.
